Values of other authors in patent US20050287177A1, “Pharmaceutical compositions” (Glaxo Group Unlimited and Smithkline Beecham Corp., priority 2002, published 2005).

Assays:
[1] = colon versus small intestine
[2] = elimination

colonic absorption [1]: very low | terminal half-life [2]: 1.5 to 2 h
Compound: Cc1cn([C@H]2C[C@H](N=[N+]=[N-])[C@@H](CO)O2)c(=O)[nH]c1=O [Zidovudine, 3′-azido-3′-deoxythymidine]
